The source of these data is US11078496B2, “System for F-box hormone receptor regulated protein expression in mammalian cells” (ICAHN SCHOOL OF MEDICINE AT MOUNT SINAI, priority 2016, dated 2021).

In the test the test system is J-p53 (OsJAZ^33-p53). The test is described as follows: Coronatine-dependent degradation of J-p53 in H9 hESCs (western blot quantification). It is filed as cell-based, human. The note with it: 50 μM coronatine, 1 day. The method, then: FIGS. 11A-11G illustrate a coronatine-induced degradation rescue system. […] GFP fluorescence was measured by flow cytometry and % degradation was calculated. The corresponding components and biological replicate number (n) are indicated. The bar for pJAZ 6-Os23 is in grey color, to indicate reduced GFP fluorescence in non-treated cells (FIG. 10F). […] GFP fluorescence was measured using flow cytometry. The experiment was repeated three times, and representative results are presented. In FIGS. 11C-11D, H9 hESCs were infected with pJAZ NLS-GFP-OsJAZ^33 (“GFP-J”) or pJAZ OsJAZ^33-p^53 (“J-p53”) that harbors an shRNA targeting the 3′-UTR of p53 and an OsJAZ^33degron-fused p53 coding sequence lacking UTRs. […] P-values were calculated using unpaired Student's t-test. […] After 24 hours, microscopic bright-field (“BF”) and fluorescence images were taken (FIG. 11E, scale bars, 100 μm) and cells were subjected to flow analysis (FIG. 11F, contour plots; FIG. 11G, quantification, error bars represent standard deviation.). […]
Cells were lysed in RIPA-B buffer (20 mM Na2HPO4 pH 7.4, 150 mM NaCl and 1% Triton X-100) supplemented with Protease Inhibitor Cocktail (Roche) for 30 minutes on ice with occasional vortexing, followed by 30 minutes centrifugation at 13,000 relative centrifugal force at 4° C. […] Luminescence was detected with X-ray films, which were scanned, or using the Bio-Rad ChemiDoc MP System. […]

In the case of `CC[C@H]1C=C(C(=O)N[C@@]2(C(=O)O)C[C@@H]2CC)[C@H]2CCC(=O)[C@H]2C1` [coronatine, Coronatine], the “coronatine-dependent degradation of J-p53” value amounted to 90%.
